Molecular target: human activated kallikrein enzyme (plasma kallikrein) (Homo sapiens (Human), UniProt P03952)
Test: Inhibition of human activated plasma kallikrein, fluorogenic peptide substrate assay, 500 pM enzyme format
Type: biochemical
Settings: 500 pM activated kallikrein enzyme, 300 uM Pro-Phe-Arg-7-amido-4-methylcoumarin substrate, 30 min preincubation, 10 min at RT; read-out: Primary Dose Response Assay: Average EC50
How it was run: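 Buffer 20 mM Tris pH 7.5, EDTA, NaCl, PEG-400, Triton X-100; 300 uM Pro-Phe-Arg-AMC; enzyme–inhibitor preincubation 30 min RT. Format one: 500 pM kallikrein, 10 min RT reaction; format two: 5 pM kallikrein, 18 h RT reaction. Fluorescence read at 460 nm (380 nm excitation).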

human activated kallikrein enzyme (plasma kallikrein), sequence (P03952 391-638): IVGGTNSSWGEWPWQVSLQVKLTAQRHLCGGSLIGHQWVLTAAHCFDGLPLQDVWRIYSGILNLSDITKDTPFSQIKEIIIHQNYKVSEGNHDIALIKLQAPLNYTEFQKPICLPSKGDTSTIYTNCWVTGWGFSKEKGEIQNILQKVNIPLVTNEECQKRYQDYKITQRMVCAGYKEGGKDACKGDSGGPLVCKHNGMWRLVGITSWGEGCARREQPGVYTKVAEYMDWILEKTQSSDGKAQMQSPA
human activated kallikrein enzyme (plasma kallikrein), sequence (P03952 20-390 partner): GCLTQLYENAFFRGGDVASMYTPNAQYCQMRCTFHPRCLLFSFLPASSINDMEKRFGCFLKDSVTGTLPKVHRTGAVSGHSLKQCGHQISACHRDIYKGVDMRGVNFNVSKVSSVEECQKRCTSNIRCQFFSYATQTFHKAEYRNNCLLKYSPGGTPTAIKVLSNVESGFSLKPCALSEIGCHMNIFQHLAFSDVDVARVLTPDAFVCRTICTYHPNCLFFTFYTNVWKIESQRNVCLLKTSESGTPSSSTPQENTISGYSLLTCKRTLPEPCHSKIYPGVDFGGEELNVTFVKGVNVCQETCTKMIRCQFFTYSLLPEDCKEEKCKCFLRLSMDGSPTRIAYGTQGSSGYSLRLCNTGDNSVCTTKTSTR

| Structure (SMILES) | EC50 |
| --- | --- |
| CCn1ncn(-c2cc(C3CC3)cn3cc(Cn4cc(C(=O)NCc5ncn6ccc(Cl)c(F)c56)nn4)nc23)c(=O)c1=O [Example I-242, N-((7-chloro-8-fluoroimidazo[1,5-a]pyridin-1-yl)methyl)-1-((6-cyclopropyl-8-(1-ethyl-5,6-dioxo-5,6-dihydro-1,2,4-triazin-4(1H)-yl)imidazo[1,2-a]pyridin-2-yl)methyl)-1H-1,2,3-triazole-4-carboxamide] | < 1 nM |
| O=C(NCc1ncn2ccc(Cl)c(F)c12)c1nnc(C(F)(F)c2cn3cc(C4CC4)ccc3n2)o1 [Example I-243, N-((7-chloro-8-fluoroimidazo[1,5-a]pyridin-1-yl)methyl)-5-((6-cyclopropylimidazo[1,2-a]pyridin-2-yl)difluoromethyl)-1,3,4-oxadiazole-2-carboxamide] | 1 to 10 nM |
| O=C(O)Cn1c(Cn2cc(C(=O)NCc3ncn4ccc(Cl)c(F)c34)nn2)cc2cc(C3CC3)ccc21 [Example I-244, 2-(2-((4-(((7-chloro-8-fluoroimidazo[1,5-a]pyridin-1-yl)methyl)carbamoyl)-1H-1,2,3-triazol-1-yl)methyl)-5-cyclopropyl-1H-indol-1-yl)acetic acid] | 10 to 100 nM |
| CCOC(=O)C(C)Cc1cc(C2CC2)cn2cc(Cn3cc(C(=O)NCc4ncn5ccc(Cl)c(F)c45)nn3)nc12 (stereo not drawn) [Example I-245a, ethyl 3-(2-((4-(((7-chloro-8-fluoroimidazo[1,5-a]pyridin-1-yl)methyl)carbamoyl)-1H-1,2,3-triazol-1-yl)methyl)-6-cyclopropylimidazo[1,2-a]pyridin-8-yl)-2-methylpropanoate] | < 1 nM |
| CC(Cc1cc(C2CC2)cn2cc(Cn3cc(C(=O)NCc4ncn5ccc(Cl)c(F)c45)nn3)nc12)C(=O)O (stereo not drawn) [Example I-245b, 3-(2-((4-(((7-chloro-8-fluoroimidazo[1,5-a]pyridin-1-yl)methyl)carbamoyl)-1H-1,2,3-triazol-1-yl)methyl)-6-cyclopropylimidazo[1,2-a]pyridin-8-yl)-2-methylpropanoic acid] | < 1 nM |
| COC(=O)Cn1c(Cn2cc(C(=O)NCc3ncn4ccc(Cl)c(F)c34)nn2)cc2cc(C3CC3)ccc21 [Example I-246, methyl 2-(2-((4-(((7-chloro-8-fluoroimidazo[1,5-a]pyridin-1-yl)methyl)carbamoyl)-1H-1,2,3-triazol-1-yl)methyl)-5-cyclopropyl-1H-indol-1-yl)acetate] | < 1 nM |
| O=C(NCc1ncn2ccc(Cl)c(F)c12)c1cn(Cc2cn3cc(C4CC4)cc(-n4cn[nH]c(=O)c4=O)c3n2)nn1 [Example I-247, N-((7-chloro-8-fluoroimidazo[1,5-a]pyridin-1-yl)methyl)-1-((6-cyclopropyl-8-(5,6-dioxo-5,6-dihydro-1,2,4-triazin-4(1H)-yl)imidazo[1,2-a]pyridin-2-yl)methyl)-1H-1,2,3-triazole-4-carboxamide] | < 1 nM |
| CCOC(=O)c1nncn1-c1cc(C2CC2)cn2cc(Cn3cc(C(=O)NCc4ncn5ccc(Cl)c(F)c45)nn3)nc12 [Example I-248, ethyl 4-(2-((4-(((7-chloro-8-fluoroimidazo[1,5-a]pyridin-1-yl)methyl)carbamoyl)-1H-1,2,3-triazol-1-yl)methyl)-6-cyclopropylimidazo[1,2-a]pyridin-8-yl)-4H-1,2,4-triazole-3-carboxylate] | < 1 nM |
| Cc1nncn1-c1cc(C2CC2)cn2cc(Cn3cc(C(=O)NCc4ncn5ccc(Cl)c(F)c45)nn3)nc12 [Example I-249, N-((7-chloro-8-fluoroimidazo[1,5-a]pyridin-1-yl)methyl)-1-((6-cyclopropyl-8-(3-methyl-4H-1,2,4-triazol-4-yl)imidazo[1,2-a]pyridin-2-yl)methyl)-1H-1,2,3-triazole-4-carboxamide] | < 1 nM |
| O=C(NCc1ncn2ccc(Cl)c(F)c12)c1cn(Cc2cn3cc(C4CC4)cc(N4CC5(COC5)C4)c3n2)nn1 [Example I-250, N-((7-chloro-8-fluoroimidazo[1,5-a]pyridin-1-yl)methyl)-1-((6-cyclopropyl-8-(2-oxa-6-azaspiro[3.3]heptan-6-yl)imidazo[1,2-a]pyridin-2-yl)methyl)-1H-1,2,3-triazole-4-carboxamide] | < 1 nM |
| O=C(O)CCn1c(Cn2cc(C(=O)NCc3ncn4ccc(Cl)c(F)c34)nn2)cc2cc(C3CC3)ccc21 [Example I-251b, 3-(2-((4-(((7-chloro-8-fluoroimidazo[1,5-a]pyridin-1-yl)methyl)carbamoyl)-1H-1,2,3-triazol-1-yl)methyl)-5-cyclopropyl-1H-indol-1-yl)propanoic acid] | < 1 nM |
| O=C(NCc1ncn2ccc(Cl)c(F)c12)c1cn(Cc2nc3ccc(C4CC4)cc3s2)nn1 [Example I-252, N-((7-chloro-8-fluoroimidazo[1,5-a]pyridin-1-yl)methyl)-1-((6-cyclopropylbenzo[d]thiazol-2-yl)methyl)-1H-1,2,3-triazole-4-carboxamide] | 10 to 100 nM |
| Cc1nnc(C)n1-c1cc(C2CC2)cn2cc(Cn3cc(C(=O)NCc4ncn5ccc(Cl)c(F)c45)nn3)nc12 [Example I-253, N-((7-chloro-8-fluoroimidazo[1,5-a]pyridin-1-yl)methyl)-1-((6-cyclopropyl-8-(3,5-dimethyl-4H-1,2,4-triazol-4-yl)imidazo[1,2-a]pyridin-2-yl)methyl)-1H-1,2,3-triazole-4-carboxamide] | < 1 nM |
| COC(=O)c1ccc(-n2c(Cn3cc(C(=O)NCc4ncn5ccc(Cl)c(F)c45)nn3)cc3cc(C4CC4)ccc32)cc1 [Example I-254, methyl 4-(2-((4-(((7-chloro-8-fluoroimidazo[1,5-a]pyridin-1-yl)methyl)carbamoyl)-1H-1,2,3-triazol-1-yl)methyl)-5-cyclopropyl-1H-indol-1-yl)benzoate] | 1 to 10 nM |
| O=C(NCc1ncn2ccc(Cl)c(F)c12)c1cn(Cc2nc3cc(C4CC4)cc(Cl)n3n2)nn1 [Example I-255, 1-((5-chloro-7-cyclopropyl-[1,2,4]triazolo[1,5-a]pyridin-2-yl)methyl)-N-((7-chloro-8-fluoroimidazo[1,5-a]pyridin-1-yl)methyl)-1H-1,2,3-triazole-4-carboxamide] | < 1 nM |
| O=C(NCc1ncn2ccc(Cl)c(F)c12)c1cn(Cc2cc3ccc(C4CC4)cn3c2)nn1 [Example I-256, N-((7-chloro-8-fluoroimidazo[1,5-a]pyridin-1-yl)methyl)-1-((6-cyclopropylindolizin-2-yl)methyl)-1H-1,2,3-triazole-4-carboxamide] | 1 to 10 nM |
| Cc1ncc(-c2cc(C3CC3)cn3cc(Cn4cc(C(=O)NCc5ncn6ccc(Cl)c(F)c56)nn4)nc23)s1 [Example I-257, N-((7-chloro-8-fluoroimidazo[1,5-a]pyridin-1-yl)methyl)-1-((6-cyclopropyl-8-(2-methylthiazol-5-yl)imidazo[1,2-a]pyridin-2-yl)methyl)-1H-1,2,3-triazole-4-carboxamide] | < 1 nM |
| Cc1ncn(-c2cc(C3CC3)cn3cc(Cn4cc(C(=O)NCc5ncn6ccc(Cl)c(F)c56)nn4)nc23)n1 [Example I-258, N-((7-chloro-8-fluoroimidazo[1,5-a]pyridin-1-yl)methyl)-1-((6-cyclopropyl-8-(3-methyl-1H-1,2,4-triazol-1-yl)imidazo[1,2-a]pyridin-2-yl)methyl)-1H-1,2,3-triazole-4-carboxamide] | < 1 nM |

Source: patent US10730874B2 (Shire Human Genetic Therapies, Inc., priority 2018, dated 2020)
